Assay results: ChEMBL document CHEMBL3286253, “Design, synthesis, and structure-activity relationship studies of novel thioether pleuromutilin derivatives as potent antibacterial agents” (J Med Chem, 2014)
In brackets after ≈: the same amount, converted by molar mass.

Key:
Type in all cases: functional
[1] = system: Staphylococcus epidermidis; assay: Antibacterial activity against methicillin-resistant Staphylococcus epidermidis after 16 hrs by agar dilution method
Streptococcus pneumoniae = assay: Antibacterial activity against penicillin-resistant Streptococcus pneumoniae after 16 hrs by agar dilution method
Staphylococcus aureus [2] = assay: Antibacterial activity against Staphylococcus aureus […] after 16 hrs by agar dilution method
Staphylococcus aureus [3] = assay: Antibacterial activity against methicillin-sensitive Staphylococcus aureus after 16 hrs by agar dilution method
Staphylococcus aureus [4] = assay: Antibacterial activity against methicillin-resistant Staphylococcus aureus after 16 hrs by agar dilution method
[5] = system: Staphylococcus epidermidis; assay: Antibacterial activity against methicillin-sensitive Staphylococcus epidermidis after 16 hrs by agar dilution method

SMILES | MIC [1] | MIC (Streptococcus pneumoniae) | MIC (Staphylococcus aureus [2]) | MIC (Staphylococcus aureus [3]) | MIC (Staphylococcus aureus [4]) | MIC [5]
C=C[C@]1(C)C[C@@H](OC(=O)CSc2ccc([N+](=O)[O-])cn2)[C@]2(C)[C@H](C)CC[C@]3(CCC(=O)[C@H]32)[C@@H](C)[C@@H]1O | 0.25 µg/mL (≈ 0.484 µM) | 0.5 µg/mL (≈ 0.968 µM) | 1 µg/mL (≈ 1.94 µM) | 0.25 µg/mL (≈ 0.484 µM) | 0.5 µg/mL (≈ 0.968 µM) | 0.25 µg/mL (≈ 0.484 µM)
C=C[C@]1(C)C[C@@H](OC(=O)CSc2ncccc2CO)[C@]2(C)[C@H](C)CC[C@]3(CCC(=O)[C@H]32)[C@@H](C)[C@@H]1O | 0.125 µg/mL (≈ 0.249 µM) | 0.125 µg/mL (≈ 0.249 µM) | 0.125 µg/mL (≈ 0.249 µM) | 0.125 µg/mL (≈ 0.249 µM) | 0.125 µg/mL (≈ 0.249 µM) | 0.063 µg/mL (≈ 0.126 µM)
C=C[C@]1(C)C[C@@H](OC(=O)CSc2cncc(NC(=O)CN3CC[C@H](O)C3)c2)[C@]2(C)[C@H](C)CC[C@]3(CCC(=O)[C@H]32)[C@@H](C)[C@@H]1O | 0.125 µg/mL (≈ 0.204 µM) | 0.125 µg/mL (≈ 0.204 µM) | 0.125 µg/mL (≈ 0.204 µM) | 0.125 µg/mL (≈ 0.204 µM) | 0.125 µg/mL (≈ 0.204 µM) | 0.125 µg/mL (≈ 0.204 µM)
C=C[C@]1(C)C[C@@H](OC(=O)CSc2cccnc2)[C@]2(C)[C@H](C)CC[C@]3(CCC(=O)[C@H]32)[C@@H](C)[C@@H]1O | 0.25 µg/mL (≈ 0.53 µM) | 0.125 µg/mL (≈ 0.265 µM) | 0.25 µg/mL (≈ 0.53 µM) | 0.125 µg/mL (≈ 0.265 µM) | 0.125 µg/mL (≈ 0.265 µM) | 0.125 µg/mL (≈ 0.265 µM)
C=C[C@]1(C)C[C@@H](OC(=O)CSc2cncc(NC(=O)[C@H](C)N)c2)[C@]2(C)[C@H](C)CC[C@]3(CCC(=O)[C@H]32)[C@@H](C)[C@@H]1O | 0.125 µg/mL (≈ 0.224 µM) | 0.125 µg/mL (≈ 0.224 µM) | 0.125 µg/mL (≈ 0.224 µM) | 0.125 µg/mL (≈ 0.224 µM) | 0.125 µg/mL (≈ 0.224 µM) | 0.125 µg/mL (≈ 0.224 µM)
C=C[C@]1(C)C[C@@H](OC(=O)CSc2cncc(/C=N/OC)c2)[C@]2(C)[C@H](C)CC[C@]3(CCC(=O)[C@H]32)[C@@H](C)[C@@H]1O | 0.25 µg/mL (≈ 0.473 µM) | 0.5 µg/mL (≈ 0.946 µM) | 0.125 µg/mL (≈ 0.236 µM) | 0.125 µg/mL (≈ 0.236 µM) | 0.25 µg/mL (≈ 0.473 µM) | 0.25 µg/mL (≈ 0.473 µM)
C=C[C@]1(C)C[C@@H](OC(=O)CSc2cncc(NC(=O)CNCCO)c2)[C@]2(C)[C@H](C)CC[C@]3(CCC(=O)[C@H]32)[C@@H](C)[C@@H]1O | 0.25 µg/mL (≈ 0.425 µM) | 0.063 µg/mL (≈ 0.107 µM) | 0.125 µg/mL (≈ 0.213 µM) | 0.125 µg/mL (≈ 0.213 µM) | 0.25 µg/mL (≈ 0.425 µM) | 0.125 µg/mL (≈ 0.213 µM)
C=C[C@]1(C)C[C@@H](OC(=O)CSc2cncc(F)c2)[C@]2(C)[C@H](C)CC[C@]3(CCC(=O)[C@H]32)[C@@H](C)[C@@H]1O | 0.25 µg/mL (≈ 0.511 µM) | 0.25 µg/mL (≈ 0.511 µM) | 0.5 µg/mL (≈ 1.02 µM) | 0.25 µg/mL (≈ 0.511 µM) | 0.25 µg/mL (≈ 0.511 µM) | 0.125 µg/mL (≈ 0.255 µM)
C=C[C@]1(C)C[C@@H](OC(=O)CSc2ccc(CO)nc2)[C@]2(C)[C@H](C)CC[C@]3(CCC(=O)[C@H]32)[C@@H](C)[C@@H]1O | 0.031 µg/mL (≈ 0.0618 µM) | 0.063 µg/mL (≈ 0.126 µM) | 0.5 µg/mL (≈ 0.997 µM) | 0.063 µg/mL (≈ 0.126 µM) | 0.031 µg/mL (≈ 0.0618 µM) | 0.25 µg/mL (≈ 0.498 µM)
C=C[C@]1(C)C[C@@H](OC(=O)CSc2cncc(OC)c2)[C@]2(C)[C@H](C)CC[C@]3(CCC(=O)[C@H]32)[C@@H](C)[C@@H]1O | 0.125 µg/mL (≈ 0.249 µM) | 0.125 µg/mL (≈ 0.249 µM) | 1 µg/mL (≈ 1.99 µM) | 0.125 µg/mL (≈ 0.249 µM) | 0.125 µg/mL (≈ 0.249 µM) | 2 µg/mL (≈ 3.99 µM)
C=C[C@]1(C)C[C@@H](OC(=O)CSc2cc(/C=N/O)ccn2)[C@]2(C)[C@H](C)CC[C@]3(CCC(=O)[C@H]32)[C@@H](C)[C@@H]1O | 0.125 µg/mL (≈ 0.243 µM) | 0.25 µg/mL (≈ 0.486 µM) | 0.125 µg/mL (≈ 0.243 µM) | 0.063 µg/mL (≈ 0.122 µM) | 0.125 µg/mL (≈ 0.243 µM) | 0.063 µg/mL (≈ 0.122 µM)
C=C[C@]1(C)C[C@@H](OC(=O)CSc2cncc(NC(=O)CN3CCC[C@H]3CN)c2)[C@]2(C)[C@H](C)CC[C@]3(CCC(=O)[C@H]32)[C@@H](C)[C@@H]1O | 0.5 µg/mL (≈ 0.798 µM) | 0.063 µg/mL (≈ 0.101 µM) | 0.25 µg/mL (≈ 0.399 µM) | 0.5 µg/mL (≈ 0.798 µM) | 1 µg/mL (≈ 1.6 µM) | 0.5 µg/mL (≈ 0.798 µM)
C=C[C@]1(C)C[C@@H](OC(=O)CSc2ccnc(CO)c2)[C@]2(C)[C@H](C)CC[C@]3(CCC(=O)[C@H]32)[C@@H](C)[C@@H]1O | 0.031 µg/mL (≈ 0.0618 µM) | 0.063 µg/mL (≈ 0.126 µM) | 0.063 µg/mL (≈ 0.126 µM) | 0.063 µg/mL (≈ 0.126 µM) | 0.031 µg/mL (≈ 0.0618 µM) | 0.031 µg/mL (≈ 0.0618 µM)
C=C[C@]1(C)C[C@@H](OC(=O)CSc2cncc(NC(=O)[C@H]3CCCCN3)c2)[C@]2(C)[C@H](C)CC[C@]3(CCC(=O)[C@H]32)[C@@H](C)[C@@H]1O | 0.125 µg/mL (≈ 0.209 µM) | 0.125 µg/mL (≈ 0.209 µM) | 0.125 µg/mL (≈ 0.209 µM) | 0.063 µg/mL (≈ 0.105 µM) | 0.125 µg/mL (≈ 0.209 µM) | 0.031 µg/mL (≈ 0.0519 µM)
C=C[C@]1(C)C[C@@H](OC(=O)CSc2cnccn2)[C@]2(C)[C@H](C)CC[C@]3(CCC(=O)[C@H]32)[C@@H](C)[C@@H]1O | 0.125 µg/mL (≈ 0.264 µM) | 0.125 µg/mL (≈ 0.264 µM) | 0.25 µg/mL (≈ 0.529 µM) | 0.125 µg/mL (≈ 0.264 µM) | 0.125 µg/mL (≈ 0.264 µM) | 0.125 µg/mL (≈ 0.264 µM)
C=C[C@]1(C)C[C@@H](OC(=O)CSc2cc(CO)ccn2)[C@]2(C)[C@H](C)CC[C@]3(CCC(=O)[C@H]32)[C@@H](C)[C@@H]1O | 0.125 µg/mL (≈ 0.249 µM) | 0.125 µg/mL (≈ 0.249 µM) | 0.125 µg/mL (≈ 0.249 µM) | 0.125 µg/mL (≈ 0.249 µM) | 0.125 µg/mL (≈ 0.249 µM) | 0.125 µg/mL (≈ 0.249 µM)
